Laboratory results: patent publication EP0188647B1, “Acylated derivatives of cytidine-diphosphate-choline, process for their preparation and their therapeutic use” (NEOPHARMED S.p.A., priority 1985, dated 1986)

[1] = control experiment, oral, 20 µmoles/kg, after 30 minutes, intestinal level

Source text: The required data refer to the distribution of radioactivity in the animal and also to structural identity of the radioactive molecular species present in some of the more significant biological samples (liver, brain, faeces, gastric and intestinal contents).
The scheme of extraction consents the recovery of three different classes of labelled metabolites: • 1) Hydrosoluble metabolites, subsequently analysed by HPLC. • 2) Metabolites with high molecular weights, proteins and nucleic acids, recovered by thermal denaturation in a hydroalcoholic environment. • 3) Lipids, subsequently purified by chromatography on silica.

Compound: C[N+](C)(C)CCOP(=O)(O)OP(=O)([O-])OC[C@H]1O[C@@H](n2ccc(N)nc2=O)[C@H](O)[C@@H]1O [CDP-choline, Cytidine-diphosphate-choline]
- double labelled CDP-choline administered found at intestinal level [1]: 0.2%
- radioactivity present in the dose found at intestinal level [1]: not more than 5%

Compound: CCCCC(=O)Nc1ccn([C@@H]2O[C@H](COP(=O)(O)OP(=O)([O-])OCC[N+](C)(C)C)[C@@H](OC(=O)CCCC)[C@H]2OC(=O)CCCC)c(=O)n1 [trivaleryl-CDP-choline, N4-valeryl-2',3'-di-O-valeryl-CDP-choline]
- time of maximum uptake in the plasmatic component and in the organs (rat, in vivo, po): 5 h
- total radioactivity, of that present in the administered dose (rat, in vivo, po): 30%
